From US9346815B2, “5-chloro-2-difluoromethoxyphenyl pyrazolopyrimidine compounds, compositions and methods of use thereof” (Genentech, Inc., priority 2014, dated 2016)

Tests used:
[1] = molecular target: isolated recombinant JAK1 kinase domain (Homo sapiens (Human), UniProt P23458); test: JAK1 enzyme assay (Caliper LabChip, peptide phosphorylation); assay type: biochemical; details: isolated recombinant JAK1 kinase domain, 25 μM ATP
[2] = tested on: JAK1-dependent STAT6 phosphorylation downstream of IL-13 stimulation in BEAS-2B human bronchial epithelial cells; test: JAK1 pathway assay in BEAS-2B cells (IL-13-pSTAT6, MSD); assay type: cell-based; details: read-out: IL13-pSTAT6 EC50 (uM)_BEAS-2B
Protocol: JAK1 Pathway Assay in Cell Lines was Carried Out as Follows:
Inhibitor potency (EC50) was determined in cell-based assays designed to measure JAK1 dependent STAT phosphorylation.
In one assay approach, TF-1 human erythroleukemia cells obtained from the American Type Culture Collection (ATCC; Manassas, Va.) were used to measure JAK1-dependent STAT6 phosphorylation downstream of IL-13 stimulation. Prior to use in the assays, TF-1 cells were starved of GM-CSF overnight in OptiMEM medium (Life Technologies, Grand Island, N.Y.) supplemented with 0.5% charcoal/dextran stripped fetal bovine serum (FBS), 0.1 mM non-essential amino acids (NEAA), and 1 mM sodium pyruvate. The assays were run in 384-well plates in serum-free OptiMEM medium using 300,000 cells per well. In a second assay approach, BEAS-2B human bronchial epithelial cells obtained from ATCC were plated at 100,000 cells per well of a 96-well plate one day prior to the experiment. The BEAS-2B assay was run in complete growth medium (bronchial epithelial basal medium plus bulletkit; Lonza; Basel, Switzerland).
Test compounds were serially diluted 1:2 in DMSO and then diluted 1:50 in medium just before use. Diluted compounds were added to the cells, for a final DMSO concentration of 0.2%, and incubated for 30 min (for the TF-1 assay) or 1 hr (for the BEAS-2B assay) at 37° C. Then, cells were stimulated with human recombinant cytokine at their respective EC90 concentrations, as previously determined for each individual lot. Cells were stimulated with IL-13 (R&D Systems, Minneapolis, Minn.) for 15 min at 37° C. The TF-1 cell reactions were stopped by the direct addition of 10× lysis buffer (Cell Signaling Technologies, Danvers, Mass.), whereas the BEAS-2B cell incubations were halted by the removal of medium and addition of 1× lysis buffer. The resultant samples were frozen in the plates at −80° C. Compound mediated inhibition of STAT6 phosphorylation was measured in the cell lysates using MesoScale Discovery (MSD) technology (Gaithersburg, Md.).

[3] = molecular target: isolated recombinant JAK2 kinase domain (Homo sapiens (Human), UniProt O60674); test: JAK2 enzyme assay (Caliper LabChip, peptide phosphorylation); assay type: biochemical; details: 25 μM ATP
Sequence of isolated recombinant JAK2 kinase domain (O60674 849-1124): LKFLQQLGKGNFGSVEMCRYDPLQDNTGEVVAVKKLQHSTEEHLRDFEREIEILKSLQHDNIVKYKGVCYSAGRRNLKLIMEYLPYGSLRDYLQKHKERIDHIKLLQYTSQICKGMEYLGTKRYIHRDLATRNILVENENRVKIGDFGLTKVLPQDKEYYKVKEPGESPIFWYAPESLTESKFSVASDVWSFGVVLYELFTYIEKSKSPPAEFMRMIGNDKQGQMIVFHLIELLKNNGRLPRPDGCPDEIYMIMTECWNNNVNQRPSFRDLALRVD

[4] = tested on: JAK1-dependent STAT6 phosphorylation downstream of IL-13 stimulation in TF-1 human erythroleukemia cells; test: JAK1 pathway assay in TF-1 cells (IL-13-pSTAT6, MSD); assay type: cell-based; details: Homo sapiens, TF-1, TF-1 cells, read-out: IL13-pSTAT6 EC50_TF-1
How it was run: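 TF-1 cells starved of GM-CSF overnight, assayed serum-free; BEAS-2B cells in complete growth medium. Lysate pSTAT6 measured by MSD; EC50 derived.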

Sequence of isolated recombinant JAK1 kinase domain (P23458 875-1153): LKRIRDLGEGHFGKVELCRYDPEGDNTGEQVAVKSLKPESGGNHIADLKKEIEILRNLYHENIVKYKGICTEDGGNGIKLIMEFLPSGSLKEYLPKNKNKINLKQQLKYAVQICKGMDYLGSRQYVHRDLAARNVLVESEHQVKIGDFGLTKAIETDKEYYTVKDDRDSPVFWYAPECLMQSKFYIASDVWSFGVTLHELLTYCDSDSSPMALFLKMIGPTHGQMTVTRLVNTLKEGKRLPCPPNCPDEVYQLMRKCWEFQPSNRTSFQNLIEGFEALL

Compound	Ki [1]	EC50 [2]	Ki [3]	EC50 [4]
O=C(Nc1cn(CC(O)CN2CCOCC2)nc1-c1cc(Cl)ccc1OC(F)F)c1cnn2cccnc12 (stereo not drawn) [Example 403, N-(3-(5-chloro-2-(difluoromethoxy)phenyl)-1-(2-hydroxy-3-morpholinopropyl)-1H-pyrazol-4-yl)pyrazolo[1,5-a]pyrimidine-3-carboxamide]	1.46 nM	0.0283 µM	–	–
CN1CCN(C2CCN(C(=O)Cn3cc(NC(=O)c4cnn5cccnc45)c(-c4cc(Cl)ccc4OC(F)F)n3)CC2)CC1=O [Example 416, N-(3-(5-chloro-2-(difluoromethoxy)phenyl)-1-(2-(4-(4-methyl-3-oxopiperazin-1-yl)piperidin-1-yl)-2-oxoethyl)-1H-pyrazol-4-yl)pyrazolo[1,5-a]pyrimidine-3-carboxamide]	0.41 nM	0.0316 µM	–	–
CN(C1CCN(C(=O)Cn2cc(NC(=O)c3cnn4cccnc34)c(-c3cc(Cl)ccc3OC(F)F)n2)CC1)C1COC1 [Example 459, N-(3-(5-chloro-2-(difluoromethoxy)phenyl)-1-(2-(4-(methyl(oxetan-3-yl)amino)piperidin-1-yl)-2-oxoethyl)-1H-pyrazol-4-yl)pyrazolo[1,5-a]pyrimidine-3-carboxamide]	0.3 nM	0.0075 µM	–	–
O=C(CN1CCOCC1)Cn1cc(NC(=O)c2cnn3cccnc23)c(-c2cc(Cl)ccc2OC(F)F)n1 [Example 412, N-(3-(5-chloro-2-(difluoromethoxy)phenyl)-1-(3-morpholino-2-oxopropyl)-1H-pyrazol-4-yl)pyrazolo[1,5-a]pyrimidine-3-carboxamide]	1.7 nM	0.0395 µM	–	–
CSCCOC(=O)CNCCn1cc(NC(=O)c2cnn3cccnc23)c(-c2cc(Cl)ccc2OC(F)F)n1 [Example 396, 2-(methylthio)ethyl 2-(2-(3-(5-chloro-2-(difluoromethoxy)phenyl)-4-(pyrazolo[1,5-a]pyrimidine-3-carboxamido)-1H-pyrazol-1-yl)ethylamino)acetate]	3.29 nM	0.0382 µM	–	–
O=C(O)CCN1CCN(C(=O)Cn2cc(NC(=O)c3cnn4cccnc34)c(-c3cc(Cl)ccc3OC(F)F)n2)CC1 [Example 353, 3-[4-(2-[3-[5-chloro-2-(difluoromethoxy)phenyl]-4-[pyrazolo[1,5-a]pyrimidine-3-amido]-1H-pyrazol-1-yl]acetyl)piperazin-1-yl]propanoic acid]	0.32 nM	3.61 µM	–	–
O=C(Nc1cn(Cc2cn(C3CCN(C4CCOCC4)CC3)nn2)nc1-c1cc(Cl)ccc1OC(F)F)c1cnn2cccnc12 [Example 457, N-(3-(5-chloro-2-(difluoromethoxy)phenyl)-1-((1-(1-(tetrahydro-2H-pyran-4-yl)piperidin-4-yl)-1H-1,2,3-triazol-4-yl)methyl)-1H-pyrazol-4-yl)pyrazolo[1,5-a]pyrimidine-3-carboxamide]	0.45 nM	0.0156 µM	–	–
CCOC(=O)CCN1CCN(C(=O)Cn2cc(NC(=O)c3cnn4cccnc34)c(-c3cc(Cl)ccc3OC(F)F)n2)CC1 [Example 332]	–	0.0692 µM	–	–
CCN[C@@H](C)Cn1cc(NC(=O)c2cnn3cccnc23)c(-c2cc(Cl)ccc2OC(F)F)n1 [Example 371, N-[3-[5-chloro-2-(difluoromethoxy)phenyl]-1-[(2S)-2-(ethylamino)propyl]-1H-pyrazol-4-yl]pyrazolo[1,5-a]pyrimidine-3-carboxamide]	–	0.0146 µM	–	–
CN(CC1(C#N)CC1)C1CCN(C(=O)Cn2cc(NC(=O)c3cnn4cccnc34)c(-c3cc(Cl)ccc3OC(F)F)n2)CC1 [Example 467, N-(3-(5-chloro-2-(difluoromethoxy)phenyl)-1-(2-(4-(((1-cyanocyclopropyl)methyl) (methyl)amino)piperidin-1-yl)-2-oxoethyl)-1H-pyrazol-4-yl)pyrazolo[1,5-a]pyrimidine-3-carboxamide]	–	0.0075 µM	–	–
O=C(Nc1cn(CC(=O)N2CCC(N3CC[S+]([O-])CC3)CC2)nc1-c1cc(Cl)ccc1OC(F)F)c1cnn2cccnc12 [Example 443]	–	0.0663 µM	–	–
O=C(Nc1cn([C@@H]2CNCC[C@H]2O)nc1-c1cc(Cl)ccc1OC(F)F)c1cnn2cccnc12 [Example 360, N-[3-[5-chloro-2-(difluoromethoxy)phenyl]-1-[(3R,4R)-4-hydroxypiperidin-3-yl]-1H-pyrazol-4-yl]pyrazolo[1,5-a]pyrimidine-3-carboxamide]	–	0.0366 µM	–	–
CNC(=O)[C@@H]1CCCN1CC1CCN(C(=O)Cn2cc(NC(=O)c3cnn4cccnc34)c(-c3cc(Cl)ccc3OC(F)F)n2)CC1 [Example 425, N-(3-(5-chloro-2-(difluoromethoxy)phenyl)-1-(2-(4-(((S)-2-(methyl-carbamoyl)pyrrolidin-1-yl)methyl)piperidin-1-yl)-2-oxoethyl)-1H-pyrazol-4-yl)pyrazolo[1,5-a]pyrimidine-3-carboxamide]	–	0.0411 µM	–	–
O=C(Nc1cn([C@H]2CNCC[C@@H]2O)nc1-c1cc(Cl)ccc1OC(F)F)c1cnn2cccnc12 [Example 361, N-[3-[5-chloro-2-(difluoromethoxy)phenyl]-1-[(3S,4S)-4-hydroxypiperidin-3-yl]-1H-pyrazol-4-yl]pyrazolo[1,5-a]pyrimidine-3-carboxamide]	–	0.0273 µM	–	–
Nc1nn2cccnc2c1C(=O)Nc1cn(CC(=O)N2C[C@H]3CN(CC4CCC(F)(F)CC4)C[C@H]3C2)nc1-c1cc(Cl)ccc1OC(F)F [Example 58, N-[1-[2-[(3aS,6aR)-2-[(4,4-difluorocyclohexyl)methyl]-1,3,3a,4,6,6a-hexahydropyrrolo[3,4-c]pyrrol-5-yl]-2-oxo-ethyl]-3-[5-chloro-2-(difluoromethoxy)phenyl]pyrazol-4-yl]-2-amino-pyrazolo[1,5-a]pyrimidine-3-carboxamide]	0.6 nM	–	0.33 nM	25.6 nM
O=C(Nc1sc(N2CCC(N3CC(F)(F)C3)CC2)nc1-c1cc(Cl)ccc1OC(F)F)c1cnn2cccnc12 [Example 196, N-[4-[5-chloro-2-(difluoromethoxy)phenyl]-2-[4-(3,3-difluoroazetidin-1-yl)-1-piperidyl]thiazol-5-yl]pyrazolo[1,5-a]pyrimidine-3-carboxamide]	1.74 nM	–	1.05 nM	17.4 nM
CN(Cc1ccc2ccccc2c1)C1CCN(C(=O)Cn2cc(NC(=O)c3cnn4cccnc34)c(-c3cc(Cl)ccc3OC(F)F)n2)CC1 [Example 130, N-[3-[5-chloro-2-(difluoromethoxy)phenyl]-1-[2-[4-[methyl(2-naphthylmethyl)amino]-1-piperidyl]-2-oxo-ethyl]pyrazol-4-yl]pyrazolo[1,5-a]pyrimidine-3-carboxamide]	1.1 nM	–	2.91 nM	32.3 nM
CCCCN(C)C1CCN(c2nc(-c3cc(Cl)ccc3OC(F)F)c(NC(=O)c3cnn4cccnc34)s2)CC1 [Example 199, N-[2-[4-[butyl(methyl)amino]-1-piperidyl]-4-[5-chloro-2-(difluoromethoxy)phenyl]thiazol-5-yl]pyrazolo[1,5-a]pyrimidine-3-carboxamide]	1.22 nM	–	1.07 nM	7.3 nM
CN(C)C[C@@H]1CCCN(C(=O)Cn2cc(NC(=O)c3cnn4cccnc34)c(-c3cc(Cl)ccc3OC(F)F)n2)C1 [Example 72, N-[3-[5-chloro-2-(difluoromethoxy)phenyl]-1-[2-[(3S)-3-[(dimethylamino)methyl]-1-piperidyl]-2-oxo-ethyl]pyrazol-4-yl]pyrazolo[1,5-a]pyrimidine-3-carboxamide]	1.17 nM	–	4.07 nM	7.2 nM
